Earlier results as cited in patent US6517814B2, “Macrocyclic chelants useful for metallopharmaceuticals” (Bristol-Myers Squibb Pharma Company, priority 2001, dated 2003).
Where two headings read alike, the source gives them in different places.

| half-life (decomposes rapidly under acidic conditions) | half-life (in 0.1 M HCl) | SMILES |
| --- | --- | --- |
| ~0.0167 h | – | O=C([O-])CN(CCN(CC(=O)[O-])CC(=O)[O-])CCN(CC(=O)[O-])CC(=O)[O-].[Gd+3] [[Gd(DTPA]^2−] |
| – | 60.2 h | O=C([O-])CN1CCN(CC(=O)[O-])CCN(CC(=O)[O-])CCN(CC(=O)[O-])CC1.[Gd+3] [[Gd(DOTA]^−] |
